The term IC50 denotes the concentration at which inhibition is half-maximal.

The text below walks through data of patent US5358946A, “Heterocycle-substituted amides, carbamates and ureas as agents for the treatment of atherosclerosis” (The Du Pont Merck Pharmaceutical Company, priority 1992, dated 1994).

Molecules are shown by their SMILES.

The first assay addresses T1, acyl-CoA: cholesterol acyltransferase (ACAT) (Rattus norvegicus, UniProt Q7TQM4).
T1 construct: Microsomes were obtained by differential centrifugation; from tissue; host or cells: liver microsomes of male Sprague Dawley rats
T1 sequence (Q7TQM4 1-524): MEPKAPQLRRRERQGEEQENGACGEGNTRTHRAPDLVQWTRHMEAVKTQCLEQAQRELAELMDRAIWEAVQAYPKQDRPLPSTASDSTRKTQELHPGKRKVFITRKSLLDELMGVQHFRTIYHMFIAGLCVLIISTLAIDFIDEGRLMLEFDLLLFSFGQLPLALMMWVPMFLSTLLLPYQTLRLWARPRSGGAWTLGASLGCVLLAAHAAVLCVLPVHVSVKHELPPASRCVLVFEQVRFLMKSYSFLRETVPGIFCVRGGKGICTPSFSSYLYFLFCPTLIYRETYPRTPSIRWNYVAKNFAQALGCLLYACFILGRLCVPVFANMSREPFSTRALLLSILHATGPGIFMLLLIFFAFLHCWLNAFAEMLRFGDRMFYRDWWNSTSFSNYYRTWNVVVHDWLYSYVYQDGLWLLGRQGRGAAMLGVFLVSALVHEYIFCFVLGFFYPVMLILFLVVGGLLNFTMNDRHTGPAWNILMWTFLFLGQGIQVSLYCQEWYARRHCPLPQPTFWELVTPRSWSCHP
The assay can be described thus: Inhibition of Acyl-CoA: Cholesterol Acyltransferase (ACAT) in hepatic microsomes (in vitro hepatic ACAT activity). The format is biochemical, rat (male Sprague Dawley). Conditions: 14C-oleoyl-CoA, 15 min preincubation at 37° C., pH 7.4, read-out: Inhibition of Cholesterol Esterification (IC50). Here is the method:
The ability of the compounds to inhibit ACAT, the enzyme responsible for the intracellular synthesis of cholesteryl esters, was tested as follows. Male Sprague Dawley rats weighing 150-300 g, were fed rat chow ad libitum. The animals were fasted for twenty-four hours prior to being sacrificed by decapitation. The livers were perfused in situ with 50 ml of cold 0.25M sucrose, excised, and homogenized in three volumes of 0.1M phosphate buffer, pH 7.4, that contained 0.5 mM EDTA (ethylenediaminetetraacetic acid), 1.0 mM glutathione, 0.25M sucrose and […]. Microsomes were obtained by differential centrifugation; the supernatant from an initial spin at 15,000×g for 15 minutes was centrifuged at 105,000×g for 1 hour to pellet the microsomes. The microsomes were suspended in homogenization buffer, reisolated by centrifugation, and stored at -70° C. Microsomes were used within one month of preparation.
The control assay in a final volume of 200 μl consisted of 200 μg of microsomal protein, 75μ<^14 C-oleoyl-CoA (10,000 dpm/nmol) in 0.1M phosphate, pH 7.4, that contained 1 mM glutathione. Compounds were added in 5 μl of DMSO (dimethyl sulfoxide) and additional controls were run with DMSO only. All components, except the oleoyl-CoA, were preincubated for 15 min. at 37° C. prior to the initiation of the reaction by the addition of oleoyl-CoA. The assay was terminated after 10 min. by the addition of 4 ml of chloroform:methanol (2:1, v/v). 20,000 dpm of 3H-choledsteryl oleate and 10 μg of unlabeled cholesteryl oleate and oleic acid were added as an internal standard and carriers, respectively. After allowing 10 min. for lipid extraction, 0.8 ml of deionized water was added to separte the solution into two phases. The lower chloroform phase was collected, dried under nitrogen and resuspended in 2 ml of hexane:diethyl ether (97:3 v/v). The lipids were then loaded onto BAKERSBOND spe* silica gel columns. Extracts were collected in scintillation vials and counted for radioactivity. The specific activity of ACAT in the control incubation averaged 260 pmol/min/mg microsomal protein.
With `O=C(Nc1ccc(F)cc1F)N(CCCCCSc1nc(-c2ccccc2)c(-c2ccccc2)[nH]1)CCN1CCOCC1` [Example 161, N'-(2,4-difluorophenyl)-N-[5-(4,5-diphenyl-1H-imidazol-2-ylthio)pentyl]-N-[2-(4-morpholinyl)ethyl]-urea], the IC50 is 0.066 µM.
On the same count and under the same terms, then `CCCCCCCN(CCNC(=O)CSc1nc(-c2ccc(OC)cc2)c(-c2ccc(OC)cc2)[nH]1)C(=O)Nc1ccc(F)cc1F` [Example 432], with 3.75 µM; and `COc1ccc(-c2nc(SCCCCCN(CCOCCO)C(=O)NC(C)C)[nH]c2-c2ccc(OC)cc2)cc1` [Example 284], with 0.48 µM.

For another assay, the target named is T2, ACAT (Mus musculus, UniProt Q61263).
T2 construct: endogenous in cells; host or cells: J774.A1 (murine macrophage-like)
T2 sequence (Q61263 1-540): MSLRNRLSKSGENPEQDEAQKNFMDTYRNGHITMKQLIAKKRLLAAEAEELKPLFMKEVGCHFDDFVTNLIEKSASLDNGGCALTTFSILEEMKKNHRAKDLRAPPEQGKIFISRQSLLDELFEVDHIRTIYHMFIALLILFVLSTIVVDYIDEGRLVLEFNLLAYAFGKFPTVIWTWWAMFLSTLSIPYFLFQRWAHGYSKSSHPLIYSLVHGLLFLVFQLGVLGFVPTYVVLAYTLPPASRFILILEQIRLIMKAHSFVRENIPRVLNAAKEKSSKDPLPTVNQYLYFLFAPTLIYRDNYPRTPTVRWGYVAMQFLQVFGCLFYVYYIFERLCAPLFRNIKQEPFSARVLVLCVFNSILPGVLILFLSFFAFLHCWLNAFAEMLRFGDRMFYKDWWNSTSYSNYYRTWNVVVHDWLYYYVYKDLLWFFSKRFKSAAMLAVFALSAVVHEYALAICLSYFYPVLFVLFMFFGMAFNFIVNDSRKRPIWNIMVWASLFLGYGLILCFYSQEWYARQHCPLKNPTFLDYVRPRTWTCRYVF
In words: Inhibition of cholesterol esterification in the murine macrophage-like cell line J774.A1. The format is cell-based. Conditions: J774.A1 cells, ac-LDL loaded, 14C-oleic acid pulse. On the procedure: The esterification of cholesterol was determined in the murine macrophage-like cell line J774.A1. Cells were seeded in 35 mm wells at a density of 300,000 cells per well in 2 mls of Dulbecco's Eagle Medium (DMEM) supplemented with 10% fetal bovine serum (FBS). Cells were incubated at 37° C. in an atmosphere of 5% CO2 and 93% humidity. After […] the media was changed to 0.68 mls 10% FBS-DMEM containing 34 μg of acetylated human low density lipoprotein (ac-LDL) to increase the intracellular concentration of cholesterol and promote esterification. At 41 hours, various inhibitors were added to the cells in DMSO (10 μl/ml maximum). At 43 hours, the cells were pulsed with 0.1 mM ^14 C-oleic acid (10,000 dpm/nmol) complexed with BSA (bovine serum albumin) to follow cholesterol ester formation. The experiment was terminated at 45 hours by washing the monolayers 3 times with 3 ml of Tris-buffered saline at 4° C. The lipids were extracted by incubating the monolayers with 1.5 ml of hexane: isopropanol (3:2, v/v) for 30 min. under gentle agitation. During this period, 10,000 dpm ^3 H-cholesterol oleate and 10 μg of unlabeled cholesteryl oleate, oleic acid, triolein and cholesterol were added as an […] standard and carriers. The organic solvent was removed and the cells were washed with an additional 1.0 ml of hexane: isopropanol which was combined with the original extract. The cells were allowed to dry overnight, digested with 2.0 ml of 0.2N sodium hydroxide for 1 hour and an aliquot of the solubilized protein used for protein determination using the Lowry method. […] Extracts were collected in scintillation vials to determine the amount of radioactivity. The conversion of oleic acid to cholesteryl ester in the control averaged 0.54 mmol/hour/mg protein and was increased upon the addition of ac-LDL to about 10.689±0.69 mmol/hour/mg protein.
Regarding `CCOCCOCCN(CCCCCSc1nc(-c2ccccc2)c(-c2ccccc2)[nH]1)C(=O)NC(C)C` [Example 322], the IC50 stood at 3.02 µM.
Same read-out and setting: the figure for `O=C(Nc1ccc(F)cc1F)N(CCCCCSc1nc(-c2ccccc2)c(-c2ccccc2)[nH]1)CCOCCO` [Example 281] is 6.74 µM.
The same measure, in the same setting: then `O=C(Nc1ccc(F)cc1F)N(CCCCCSc1nc(-c2ccccc2)c(-c2ccccc2)[nH]1)CCN1CCOCC1` [Example 161, N'-(2,4-difluorophenyl)-N-[5-(4,5-diphenyl-1H-imidazol-2-ylthio)pentyl]-N-[2-(4-morpholinyl)ethyl]-urea], with 0.88 µM.
On the same count and under the same terms, the figure for `CCCCCCCN(CCOCCSc1nc(-c2ccccc2)c(-c2ccccc2)[nH]1)C(=O)Nc1ccc(F)cc1F` [Example 361] is 3.98 µM; for `CCCCCCCN(CCNC(=O)CSc1nc(-c2ccc(OC)cc2)c(-c2ccc(OC)cc2)[nH]1)C(=O)Nc1ccc(F)cc1F` [Example 432] it is 0.8 µM; for `COc1ccc(-c2nc(SCCCCCN(CCOCCO)C(=O)NC(C)C)[nH]c2-c2ccc(OC)cc2)cc1` [Example 284] it is 2.42 µM.
`CC(C)NC(=O)N(CCCCCSc1nc(-c2ccccc2)c(-c2ccccc2)[nH]1)CCOCCO` [Example 282, N-[5-(4,5-diphenyl-1H-imidazol-2-ylthio)-pentyl]-N-[2-(2-hydroxyethoxy)-ethyl]-N'-(1-methylethyl)-urea] returned an IC50 of 6.84 µM.
The same measure, in the same setting: then `CCCCOCCN(CCCCCSc1nc(-c2ccccc2)c(-c2ccccc2)[nH]1)C(=O)NC(C)C` [Example 262, N-(2-butoxyethyl)-N-[5-(4,5-diphenyl-1H-imidazol-2-ylthio)pentyl]-N'-(1-methylethyl)-urea], with 0.84 µM; and `CCOCCOCCN(CCCCCSc1nc(-c2ccc(SC)cc2)c(-c2ccc(SC)cc2)[nH]1)C(=O)NC(C)C` [Example 325], with 0.041 µM.
On the same count and under the same terms, the figure for `CC(C)NC(=O)N(CCN(C)CCSc1nc(-c2ccccc2)c(-c2ccccc2)[nH]1)CCN1CCOCC1` [Example 183] is 6.28 µM.
In turn, `CCCCCCCN(CCN(C)CCSc1nc(-c2ccccc2)c(-c2ccccc2)[nH]1)C(=O)NC(C)C` [Example 102] yielded an IC50 of 2.4 µM.
Same read-out and setting: the figure for `CCCCOCCN(CCCCCSc1nc(-c2ccccc2)c(-c2ccccc2)[nH]1)C(=O)Nc1ccc(F)cc1F` [Example 261, N-(2-butoxyethyl)-N'-(2,4-difluorophenyl)-N-[5-(4,5-diphenyl-1H-imidazol-2-ylthio)pentyl]-urea] is 1.75 µM; for `CN(CCSc1nc(-c2ccccc2)c(-c2ccccc2)[nH]1)CCN(CCN1CCOCC1)C(=O)Nc1ccc(F)cc1F` [Example 181] it is 2.74 µM.
On the same count and under the same terms, then `CCN(CC)CCN(CCCCCSc1nc(-c2ccccc2)c(-c2ccccc2)[nH]1)C(=O)NC(C)C` [Example 1, N-[2-(diethylamino)ethyl]-N-[5-(4,5-diphenyl-1H-imidazol-2-ylthio)pentyl]-N'-(1-methylethyl)-urea], with 0.58 µM.
The compound `COc1ccc(-c2nc(SCCCCCN(CCOCCO)C(=O)Nc3ccc(F)cc3F)[nH]c2-c2ccc(OC)cc2)cc1` [Example 283, N-[5-[4,5-bis(4-methoxyphenyl)-1H-imidazol-2-ylthio]pentyl]-N '-(2,4-difluorophenyl)-N-[2-(2-hydroxyethoxy)ethyl]-urea] registered an IC50 of 0.84 µM.
Still for that read-out and setting: then `CCCCCCCN(CCOCCSc1nc(-c2ccc(OC)cc2)c(-c2ccc(OC)cc2)[nH]1)C(=O)Nc1ccc(F)cc1F` [Example 364], with 0.5 µM; and `CCCCCCCN(CCN(C)CCSc1nc(-c2ccccc2)c(-c2ccccc2)[nH]1)C(=O)Nc1ccc(F)cc1F` [Example 101, N'-(2,4-difluorophenyl)-N-[2-[2-(4,5-diphenyl-1H-imidazol-2-ylthio)ethyl]-N-[methylamino]ethyl]-N-heptyl-urea], with 1.47 µM.
Same read-out and setting: then `CCCCCCCN(CCOCCSc1nc(-c2ccccc2)c(-c2ccccc2)[nH]1)C(=O)NC(C)C` [Example 362], with 0.99 µM; and `CCOCCOCCN(CCCCCSc1nc(-c2ccccc2)c(-c2ccccc2)[nH]1)C(=O)Nc1ccc(F)cc1F` [Example 321], with 4.01 µM; and `COCCOCCN(CCCCCSc1nc(-c2ccc(OC)cc2)c(-c2ccc(OC)cc2)[nH]1)C(=O)NC(C)C` [Example 304, N-[5-[4,5-bis(4-methoxyphenyl)-1H-imidazol-2-ylthio]-pentyl]-N-[2-(2-methoxyethoxy)-ethyl]-N'-(1-methylethyl)-urea], with 0.36 µM.
`COCCOCCN(CCCCCSc1nc(-c2ccc(OC)cc2)c(-c2ccc(OC)cc2)[nH]1)C(=O)Nc1ccc(F)cc1F` [Example 303, N-[5-[4,5-bis(4-methoxyphenyl)-1H-imidazol-2-ylthio]pentyl]-N '-(2,4-difluorophenyl)-N-[2-(2-methoxyethoxy)ethyl]-urea] showed an IC50 of 0.25 µM.
In the case of `CCN(CC)CCN(CCCCCSc1nc(-c2ccccc2)c(-c2ccccc2)[nH]1)C(=O)Nc1ccc(F)cc1F` [Example 2], the IC50 is 2.18 µM.
The same measure, in the same setting: the figure for `COc1ccc(-c2nc(SCCCCCN(CCN3CCOCC3)C(=O)Nc3ccc(F)cc3F)[nH]c2-c2ccc(OC)cc2)cc1` [Example 162, N-[5-[4,5-bis(4-methoxyphenyl)-1H-imidazol-2-ylthio]pentyl]-N'-(2,4-difluorophenyl)-N-[2-(1-morpholinyl)ethyl]-urea] is 1.34 µM.
